This is an account of results in patent US20250136722A1, “CYTOTOXICITY TARGETING CHIMERAS” (GLAXOSMITHKLINE INTELLECTUAL PROPERTY DEVELOPMENT LIMITED, priority 2021, published 2025).

Several values for one entry are separate records, joined by “and”; a condition that tells them apart may be missing. Equal values may be shown once. Some results are limits rather than exact numbers.

Assay [1] deals with human alpha1 nicotinic acetylcholine (nACh) receptor (Homo sapiens, UniProt P02708+Q07001). In words: Nicotinic acetylcholine receptor antagonism assay, IONFlux automated patch clamp (Example 203). It counts as cell-based. The following applies: for Emax at 10 µM: maximum percentage antagonism at maximum concentration tested 10 μM, read-out: Maximum Response (%); for IC50: nAChR antagonism, ACh stimulated, patch clamp. As for the experimental part: Cells expressing human alpha1 nicotinic acetylcholine (nACh) receptor (nAChR) were washed and dissociated using Trypsin containing buffer. Cells were then washed and seeded at a density of 3-5 million cells/mL and allowed to grow for 3 days. Then, 60-80 μL of cells were added to plates and incubated with dose response of an ARM compound of Formula (I) with a top concentration of either 10 μM or 100 μM. The receptor was then stimulated via addition of acetylcholine (ACh) and activation of the receptor was monitored via the IONFlux automated patch clamp system. IonFlux Data Analyzer software was utilized to perform leak subtraction and measure (min) peak current amplitude.
Chain of human alpha1 nicotinic acetylcholine (nACh) receptor (P02708 21-457): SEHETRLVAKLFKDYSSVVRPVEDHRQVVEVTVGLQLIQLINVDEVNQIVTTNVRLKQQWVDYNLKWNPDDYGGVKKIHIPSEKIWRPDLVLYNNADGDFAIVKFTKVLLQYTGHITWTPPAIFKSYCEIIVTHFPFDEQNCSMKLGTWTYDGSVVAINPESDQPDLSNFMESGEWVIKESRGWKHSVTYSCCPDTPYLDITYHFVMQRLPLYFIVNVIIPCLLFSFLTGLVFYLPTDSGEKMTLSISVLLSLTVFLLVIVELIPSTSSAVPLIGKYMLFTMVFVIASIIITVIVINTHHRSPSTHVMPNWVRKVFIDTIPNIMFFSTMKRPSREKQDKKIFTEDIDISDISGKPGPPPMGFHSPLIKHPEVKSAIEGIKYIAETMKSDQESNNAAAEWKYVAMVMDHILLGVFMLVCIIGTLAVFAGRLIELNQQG
Chain of human alpha1 nicotinic acetylcholine (nACh) receptor (P11230 24-501 partner): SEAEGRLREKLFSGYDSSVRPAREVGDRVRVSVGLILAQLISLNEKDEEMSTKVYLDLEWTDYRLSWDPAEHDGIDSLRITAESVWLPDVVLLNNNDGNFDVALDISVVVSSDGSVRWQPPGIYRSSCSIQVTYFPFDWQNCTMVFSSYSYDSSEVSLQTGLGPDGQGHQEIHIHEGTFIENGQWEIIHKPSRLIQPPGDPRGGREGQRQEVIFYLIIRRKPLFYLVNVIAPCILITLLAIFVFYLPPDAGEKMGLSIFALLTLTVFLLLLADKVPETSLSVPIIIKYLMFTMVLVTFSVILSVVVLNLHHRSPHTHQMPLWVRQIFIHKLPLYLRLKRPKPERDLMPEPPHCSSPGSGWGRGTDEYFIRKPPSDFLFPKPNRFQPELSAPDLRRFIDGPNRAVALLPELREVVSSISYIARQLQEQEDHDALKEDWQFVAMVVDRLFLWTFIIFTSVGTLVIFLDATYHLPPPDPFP
Chain of human alpha1 nicotinic acetylcholine (nACh) receptor (Q07001 22-517): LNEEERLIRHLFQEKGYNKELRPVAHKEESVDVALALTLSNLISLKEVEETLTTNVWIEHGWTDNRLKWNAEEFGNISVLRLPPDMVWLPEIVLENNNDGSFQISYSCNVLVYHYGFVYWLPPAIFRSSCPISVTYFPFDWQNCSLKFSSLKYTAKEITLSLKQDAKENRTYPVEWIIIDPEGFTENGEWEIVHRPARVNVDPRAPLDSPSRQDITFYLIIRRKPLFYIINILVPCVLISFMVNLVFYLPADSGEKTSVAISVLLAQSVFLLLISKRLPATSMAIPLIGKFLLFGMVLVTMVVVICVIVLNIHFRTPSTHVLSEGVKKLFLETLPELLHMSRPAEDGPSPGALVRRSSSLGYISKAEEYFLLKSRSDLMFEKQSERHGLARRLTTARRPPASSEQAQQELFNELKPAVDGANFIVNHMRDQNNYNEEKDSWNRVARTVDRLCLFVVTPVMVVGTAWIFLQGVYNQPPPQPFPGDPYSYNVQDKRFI
Data processing: (1) Current values recorded for vehicle only applications in individual traps/patterns were subtracted from corresponding current amplitude values for control, test article and control+test article. (2) Control response was calculated as % of the average response of the 3rd out of total 3 ACh (10 mM) applications alone. In rare situations, if the 3rd ACh response was obscured due to technical artifacts, the 2nd and/or 1 st ACh (10 mM) application was considered as control. The peak current amplitude generated in the presence of each test article concentration was then used to calculate the % inhibition as compared to control response (10 mM ACh alone). These estimates were further corrected for vehicle response and run down corrected by normalizing with time matched control responses (10 mM ACh alone). The corrected percentages were then fit with a non-linear function in GraphPad Prism 6 (or later versions) to determine the […].
Exclusion criteria: (i) any n's with poor recording quality, (ii) control current amplitude <500 pA or (iii) significant outliers, as determined by the Grubbs' test.
ARMs compounds of Formula (I) of the invention were tested for antagonism of the nAChR in the above assay in […] experimental runs and the results are shown in Table 7 below. Antagonistic activity of the compounds of Formula (I) of the invention is reported as an IC50 value (half maximal inhibitory concentration) and the maximum percentage antagonism observed at the highest concentration of compound of Formula (I) tested, as indicated in Table 7. For compounds tested in more than one experimental run, the IC50 value is reported as an average.
For orientation: Patch clamp records ionic current or voltage across a cell membrane.

For assay [2], the target named is Anti-cotinine antibody (SEQ ID NO: 11 / SEQ ID NO: 12, rabbit variable region with human IgG1 Fc domain). In words: Binding of anti-cotinine antibody to ARM compounds by SPR, Biacore T200, 37° C. (Example 202). The following applies: pH 7.4, rabbit variable region/human IgG1 Fc antibody captured on protein A. The method, boiled down:
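Antibody captured on protein A chip. Compounds injected (3-fold, 5-point, top 200 nM) at 100 μL/min with 200 s association and 2000 s dissociation, at 37° C. in HEPES pH 7.4 buffer with 1% DMSO. Double-referenced data fit to 1:1 kinetics. Kd = koff/kon, reported as pKd, averaged over runs.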

For assay [3], the target named is T1, CHOK1 cells engineered to overexpress human CCR2 (Homo sapiens, UniProt P41597).
T1 construct: expressed in transfected cells; host or cells: CHOK1 cells
Put plainly: Antibody dependent cellular cytotoxicity (ADCC) reporter assay (Example 199). It counts as cell-based. The conditions noted are these: with anti-cotinine antibody SEQ ID NO: 11/12; CHOK1-human CCR2 target cells, Jurkat FcγRIIIa NFAT-luciferase reporter cells; 12-18 hours; read-out: ADCC Reporter Assay pEC50 (converted). The method, boiled down:
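CHOK1-hCCR2 target cells are co-incubated for 12–18 h with Jurkat FcγRIIIa/NFAT-luciferase reporter cells, ARM compound (1 pM–10 μM) and anti-cotinine antibody with a DE-mutant human IgG1 Fc (0.01–200 μg/mL). Luminescence is expressed as signal:background against no-compound wells; EC50 comes from nonlinear fit and is reported as pEC50, averaged across runs.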
Background: Reporter assays use an easily measured gene product as a stand-in for the process of interest.

As usually defined, the IC50 is the concentration that inhibits the measured activity by half. As to `CC(C)N(C)[C@@H]1CC[C@H](N2CC[C@H](Nc3ncnc4ccc(C(F)(F)F)cc34)C2=O)[C@H](NC(=O)[C@H]2CC[C@@H](NC(=O)CCCOCCCCOCCNC(=O)[C@H]3CC(=O)N(C)[C@@H]3c3cccnc3)CC2)C1` [Example 122], in assay [1], the Emax at 10 µM is 23% and the half-inhibitory concentration (IC50) was > 10000 nM. Also, the “pKd of Antibody for ARM Compound of Formula (I)” value (shortened to “pKd of Antibody”) in assay [2] was found to be 9.146.

Consider `CC(C)N(C)[C@@H]1CC[C@H](N2CC[C@H](Nc3ncnc4ccc(C(F)(F)F)cc34)C2=O)[C@H](NC(=O)COCCNC(=O)CCNC(=O)CCOCCOCCNC(=O)[C@H]2CC(=O)N(C)[C@@H]2c2cccnc2)C1` [Example 181, (2S,3S)-N-(1-(((1R,2S,5R)-5-(Isopropyl(methyl)amino)-2-((S)-2-oxo-3-((6-(trifluoromethyl)quinazolin-4-yl)amino)pyrrolidin-1-yl)cyclohexyl)amino)-1,7,11-trioxo-3,14,17-trioxa-6,10-diazanonadecan-19-yl)-1-methyl-5-oxo-2-(pyridin-3-yl)pyrrolidine-3-carboxamide], for which the “pKd of Antibody” value in assay [2] came out at 9.1645. Also, in assay [3], the EC50 is 0.675 nM.

As to `CC(C)N(C)[C@@H]1CC[C@H](N2CC[C@H](Nc3ncnc4ccc(C(F)(F)F)cc34)C2=O)[C@H](NC(=O)C2CCN(C(=O)CCOCCOCCOCCNC(=O)[C@H]3CC(=O)N(C)[C@@H]3c3cccnc3)CC2)C1` [Example 29], in assay [2], the “pKd of Antibody” value came to 9.3345. Also, the EC50 in assay [3] was 12.6 nM.

On to `CC(C)N(C)[C@@H]1CCC(N2CC[C@H](Nc3ncnc4ccc(C(F)(F)F)cc34)C2=O)[C@H](NC(=O)CCOCCOCCOCCOCCOCCOCCOCCOCCNC(=O)[C@H]2CC(=O)N(C)[C@@H]2c2cccnc2)C1` (stereo partly drawn) [Example 42], for which the “pKd of Antibody” value in assay [2] stood at 9.23. For the same compound, the EC50 in assay [3] is 0.398 nM.

Take `CC(C)N(C)[C@@H]1CC[C@H](N2CC[C@H](Nc3ncnc4ccc(C(F)(F)F)cc34)C2=O)[C@H](NC(=O)[C@H]2CC[C@H](CNC(=O)CCOCCOCCOCCNC(=O)[C@H]3CC(=O)N(C)[C@@H]3c3cccnc3)CC2)C1` [Example 32]: the “pKd of Antibody” value in assay [2] came out at 9.1825. Besides, in assay [3], the EC50 is 1.07 nM and 0.593 nM.

With `CC(C)N(C)[C@@H]1CC[C@H](N2CC[C@H](Nc3ncnc4ccc(C(F)(F)F)cc34)C2=O)[C@H](NC(=O)[C@H]2CC[C@@H](CC(=O)CCCOC[C@H]3CC[C@H](COCCNC(=O)[C@H]4CC(=O)N(C)[C@@H]4c4cccnc4)CC3)CC2)C1` [Example 60], in assay [1], the Emax at 10 µM was 18.2% and the IC50 is > 10000 nM. The “pKd of Antibody” value in assay [2] stood at 9.4635.

In the case of `CC(C)N(C)[C@@H]1CC[C@H](N2CC[C@H](Nc3ncnc4ccc(C(F)(F)F)cc34)C2=O)[C@H](NC(=O)COCCNC(=O)CNC(=O)CCOCCOCCNC(=O)[C@H]2CC(=O)N(C)[C@@H]2c2cccnc2)C1` [Example 80], in assay [2], the “pKd of Antibody” value is 9.109. Besides, the EC50 in assay [3] was 1.58 nM.

As for `CC(C)N(C)[C@@H]1CC[C@H](N2CC[C@H](Nc3ncnc4ccc(C(F)(F)F)cc34)C2=O)[C@H](NC(=O)[C@H]2CC[C@@H](NC(=O)CCOCCNC(=O)COCCNC(=O)[C@H]3CC(=O)N(C)[C@@H]3c3cccnc3)CC2)C1` [Example 98, (2S,3S)-N-(2-(2-((2-(3-(((1S,4s)-4-(((1R,2S,5R)-5-(Isopropyl(methyl)amino)-2-((S)-2-oxo-3-((6-(trifluoromethyl)quinazolin-4-yl)amino)pyrrolidin-1-yl)cyclohexyl)carbamoyl)cyclohexyl)amino)-3-oxopropoxy)ethyl)amino)-2-oxoethoxy)ethyl)-1-methyl-5-oxo-2-(pyridin-3-yl)pyrrolidine-3-carboxamide], the “pKd of Antibody” value in assay [2] is 9.0095. The EC50 in assay [3] was 1 nM and 0.631 nM.

Consider `CN1C(=O)C[C@H](C(=O)NCCOCCOCCOCCC(=O)N[C@H]2CC[C@H](C(=O)N[C@@H]3C[C@H](NC(C)(C)C)CC[C@@H]3N3CC[C@H](Nc4ncnc5ccc(C(F)(F)F)cc45)C3=O)CC2)[C@H]1c1cccnc1` [Example 31], for which the “pKd of Antibody” value in assay [2] was 9.3015. For the same compound, the EC50 in assay [3] is 7.94 nM.

As to `CC(C)N(C)[C@@H]1CC[C@H](N2CC[C@H](Nc3ncnc4ccc(C(F)(F)F)cc34)C2=O)[C@H](NC(=O)[C@H]2CC[C@@H](NC(=O)CCCC(=O)NCCCC(=O)NCCCNC(=O)[C@H]3CC(=O)N(C)[C@@H]3c3cccnc3)CC2)C1` [Example 56, N-((1S,4s)-4-(((1R,2S,5R)-5-(Isopropyl(methyl)amino)-2-((S)-2-oxo-3-((6-(trifluoromethyl)quinazolin-4-yl)amino)pyrrolidin-1-yl)cyclohexyl)carbamoyl)cyclohexyl)-N^5-(4-((3-((2S,3S)-1-methyl-5-oxo-2-(pyridin-3-yl)pyrrolidine-3-carboxamido)propyl)amino)-4-oxobutyl)glutaramide], the “pKd of Antibody” value in assay [2] is 9.3185. Besides, in assay [3], the EC50 is 0.655 nM and 0.128 nM.

Take `CN1C(=O)C[C@H](C(=O)NCC(=O)NCCOCCOCCC(=O)N[C@H]2CC[C@@H](C(=O)N[C@@H]3C[C@H](NC(C)(C)C)CC[C@@H]3N3CC[C@H](Nc4ncnc5ccc(C(F)(F)F)cc45)C3=O)CC2)[C@H]1c1cccnc1` [Example 65]: in assay [2], the “pKd of Antibody” value worked out at 8.648. Also, the EC50 in assay [3] was 1.4 nM and 0.498 nM.

For the compound `CC(C)N(C)[C@@H]1CC[C@H](N2CC[C@H](Nc3ncnc4ccc(C(F)(F)F)cc34)C2=O)[C@H](NC(=O)COCCNC(=O)CCOCCOCCNC(=O)CCNC(=O)[C@H]2CC(=O)N(C)[C@@H]2c2cccnc2)C1` [Example 50], in assay [2], the “pKd of Antibody” value turned out to be 9.1485. Moreover, the EC50 in assay [3] is 1.41 nM.

For the compound `CC(C)N(C)[C@@H]1CC[C@H](N2CC[C@H](Nc3ncnc4ccc(C(F)(F)F)cc34)C2=O)[C@H](NC(=O)CCOCCNC(=O)COCCNC(=O)CCOCCNC(=O)[C@H]2CC(=O)N(C)[C@@H]2c2cccnc2)C1` [Example 163, (2S,3S)-N-(19-(((1R,2S,5R)-5-(Isopropyl(methyl)amino)-2-((S)-2-oxo-3-((6-(trifluoromethyl)quinazolin-4-yl)amino)pyrrolidin-1-yl)cyclohexyl)amino)-6,12,19-trioxo-3,10,16-trioxa-7,13-diazanonadecyl)-1-methyl-5-oxo-2-(pyridin-3-yl)pyrrolidine-3-carboxamide], the “pKd of Antibody” value in assay [2] is given as 9.07. Also, the EC50 in assay [3] was 0.631 nM.

Turning to `CC(C)N(C)[C@@H]1CC[C@H](N2CC[C@H](Nc3ncnc4ccc(C(F)(F)F)cc34)C2=O)[C@H](NC(=O)[C@H]2CC[C@@H](NC(=O)COCCNC(=O)CCOCCNC(=O)[C@H]3CC(=O)N(C)[C@@H]3c3cccnc3)CC2)C1` [compound 152], the “pKd of Antibody” value in assay [2] worked out at 9.111. The EC50 in assay [3] was 1.4 nM.

On to `CC(C)N(C)[C@@H]1CC[C@H](N2CC[C@H](Nc3ncnc4ccc(C(F)(F)F)cc34)C2=O)[C@H](NC(=O)CCOCCNC(=O)[C@H]2CC[C@@H](NC(=O)CCOCCNC(=O)[C@H]3CC(=O)N(C)[C@@H]3c3cccnc3)CC2)C1` [Example 110], for which the “pKd of Antibody” value in assay [2] was determined as 8.9085. Further, in assay [3], the EC50 is 0.167 nM.

On to `CC(C)N(C)[C@@H]1CC[C@H](N2CC[C@H](Nc3ncnc4ccc(C(F)(F)F)cc34)C2=O)[C@H](NC(=O)[C@H]2C[C@@H](NC(=O)CCOCCOCCNC(=O)CNC(=O)[C@H]3CC(=O)N(C)[C@@H]3c3cccnc3)C2)C1` [Example 66], for which the “pKd of Antibody” value in assay [2] stood at 8.649. Also, in assay [3], the EC50 was 0.431 nM.

As for `CC(C)N(C)[C@@H]1CC[C@H](N2CC[C@H](Nc3ncnc4ccc(C(F)(F)F)cc34)C2=O)[C@H](NC(=O)[C@H]2C[C@@H](NC(=O)CCOC[C@H]3CC[C@H](COCCNC(=O)[C@H]4CC(=O)N(C)[C@@H]4c4cccnc4)CC3)C2)C1` [Example 55], the “pKd of Antibody” value in assay [2] was determined as 9.4085. Also, in assay [3], the EC50 was 0.377 nM.
